“And” between values parts separate entries of the source, which are not always exact repeats. Equal entries are not always repeated.
Experiments:
Format in all cases: cell-based, human
22Rv1 cells = assay: Growth assay (SRB), 22Rv1
Description: (§1) To determine the IC50 of drug treatments on growth, cells were seeded in 96-well culture plates. Two days after seeding, the cells were treated with increasing concentrations of drugs and incubated for 4 days. Cell number was determined using the SRB assay (Skehan et al, [1990]), and IC50 values were calculated using non-linear regression curve fitting in GraphPad Prism v10. For all other growth experiments, cells were seeded into 96-well plates, and appropriate drugs were added 2 days after seeding. Cells were then incubated in an IncuCyte Zoom live-cell imager, with cell confluency measured every 6 h. Cell doubling times were determined by non-linear curve fitting (exponential growth equation) in GraphPad Prism v10.

22Rv1-CDK7-D97N cells = assay: Growth assay (SRB), 22Rv1 CDK7-D97N knock-in pool; settings: 22Rv1 CDK7 D99N
Description: as §1
(§2) Alt-R^TM S.p. Cas9 nuclease V3, Alt-R CRISPR-Cas9 crRNA, TracrRNA and the donor templates were obtained from Integrated DNA Technologies. […] Cells were treated with 0.7 µM of Alt-R HDR Enhancer V2 to improve HRD efficiency. Sequences of the CRISPRs in the crRNA and the donor templates are shown in the Reagents and tools table. Donor templates were designed to include non-coding substitutions to aid genome DNA PCR for identifying knock-in events and to facilitate cloning; these substitutions are noted in the Reagents and tools table.

LNCaP-CDK7-D97N cells = assay: Growth assay (SRB), LNCaP CDK7-D97N knock-in; settings: LNCaP CDK7 D99N
Description: as §1, §2

LNCaP cells = assay: Growth assay (SRB), LNCaP
Description: as §1

MCF7 cells = assay: Growth assay (SRB), MCF7; settings: for % Growth: biological reps
Summary of the method: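 Cells are seeded and, two days later, exposed to drug. The SRB endpoint follows 4 days of treatment across increasing doses and yields IC50 by nonlinear regression. The confluency assays instead monitor growth every 6 h and report doubling time from an exponential model.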

## CC(C)c1cnn2c(NCc3ccccc3-n3cccn3)nc(OC3CCCNC3)nc12 (stereo not shown) [LDC4297]
22Rv1 cells; 22Rv1, Log10 Conc. (nM) 0.09
  % Growth: 67.07% and 96.13%
22Rv1 cells; 22Rv1, Log10 Conc. (nM) 0.69
  % Growth: 66.51% and 88.13%
22Rv1 cells; 22Rv1, Log10 Conc. (nM) 1.29
  % Growth: 42.25% and 51.76%
22Rv1 cells; 22Rv1, Log10 Conc. (nM) 1.89
  % Growth: 9.89% and 17.57%
22Rv1 cells; 22Rv1, Log10 Conc. (nM) 2.49
  % Growth: 11.47% and 9.07%
22Rv1 cells; 22Rv1, Log10 Conc. (nM) 3.10
  % Growth: 2.69% and 4.03%
22Rv1 cells; 22Rv1, Log10 Conc. (nM) 3.70
  % Growth: -4.63% and -0.97%
22Rv1 cells; 22Rv1, Log10 Conc. (nM) 4.30
  % Growth: -12.52% and -9.59%
22Rv1 cells; 22Rv1, Log10 Conc. (nM) -0.52
  % Growth: 95.29% and 95.79%
22Rv1 cells; 22Rv1, Log10 Conc. (nM) 0.09, 4 days, biological reps
  % Growth: 97.43% and 97.15%
22Rv1 cells; 22Rv1, Log10 Conc. (nM) 0.69, 4 days, biological reps
  % Growth: 91.35% and 89.50%
22Rv1 cells; 22Rv1, Log10 Conc. (nM) 1.29, 4 days, biological reps
  % Growth: 69.89% and 67.14%
22Rv1 cells; 22Rv1, Log10 Conc. (nM) 1.89, 4 days, biological reps
  % Growth: 34.11% and 32.16%
22Rv1 cells; 22Rv1, Log10 Conc. (nM) 2.49, 4 days, biological reps
  % Growth: 25.80% and 22.21%
22Rv1 cells; 22Rv1, Log10 Conc. (nM) 3.10, 4 days, biological reps
  % Growth: 19.07% and 18.11%
22Rv1 cells; 22Rv1, Log10 Conc. (nM) 3.70, 4 days, biological reps
  % Growth: 12.19% and 10.17%
22Rv1 cells; 22Rv1, Log10 Conc. (nM) 4.30, 4 days, biological reps
  % Growth: -1.74% and -5.36%
22Rv1 cells; 22Rv1, Log10 Conc. (nM) -0.52, 4 days, biological reps
  % Growth: 96.00% and 93.75%
22Rv1-CDK7-D97N cells; Log10 Conc. (nM) 0.09
  % Growth: 99.08% and 97.65%
22Rv1-CDK7-D97N cells; Log10 Conc. (nM) 0.69
  % Growth: 98.24% and 92.35%
22Rv1-CDK7-D97N cells; Log10 Conc. (nM) 1.29
  % Growth: 97.25% and 79.61%
22Rv1-CDK7-D97N cells; Log10 Conc. (nM) 2.49
  % Growth: 79.12% and 58.88%
22Rv1-CDK7-D97N cells; Log10 Conc. (nM) 3.10
  % Growth: 40.19% and 24.40%
22Rv1-CDK7-D97N cells; Log10 Conc. (nM) 4.30
  % Growth: -8.93% and -12.96%
22Rv1-CDK7-D97N cells; Log10 Conc. (nM) -0.52
  % Growth: 101.69% and 97.12%
LNCaP-CDK7-D97N cells; Log10 Conc. (nM) 0.09
  % Growth: 106.48% and 87.66%
LNCaP-CDK7-D97N cells; Log10 Conc. (nM) 0.69
  % Growth: 87.77% and 86.95%
LNCaP-CDK7-D97N cells; Log10 Conc. (nM) 1.29
  % Growth: 78.55% and 76.66%
LNCaP-CDK7-D97N cells; Log10 Conc. (nM) 1.89
  % Growth: 68.25% and 64.95%
LNCaP-CDK7-D97N cells; Log10 Conc. (nM) 2.49
  % Growth: 52.79% and 47.15%
LNCaP-CDK7-D97N cells; Log10 Conc. (nM) 3.10
  % Growth: 25.80% and 16.35%
LNCaP-CDK7-D97N cells; Log10 Conc. (nM) 3.70
  % Growth: 4.77% and -4.61%
LNCaP-CDK7-D97N cells; Log10 Conc. (nM) 4.30
  % Growth: -8.16% and -14.41%
LNCaP-CDK7-D97N cells; Log10 Conc. (nM) -0.52
  % Growth: 106.84% and 93.83%
LNCaP cells; Log10 Conc. (nM) 0.09
  % Growth: 103.68% and 97.62%
LNCaP cells; Log10 Conc. (nM) 0.69
  % Growth: 77.76% and 65.52%
LNCaP cells; Log10 Conc. (nM) 1.29
  % Growth: 48.12% and 34.31%
LNCaP cells; Log10 Conc. (nM) 3.10
  % Growth: 4.14% and -5.07%
LNCaP cells; Log10 Conc. (nM) 3.70
  % Growth: -12.69% and -19.92%
LNCaP cells; Log10 Conc. (nM) 4.30
  % Growth: -12.08% and -21.22%
LNCaP cells; Log10 Conc. (nM) -0.52
  % Growth: 92.16% and 87.19%
MCF7 cells; 4 days, SRB
  IC50: 7.3 nM
MCF7 cells; Log10 Conc. (nM) 0.09, 4 days
  % Growth: 91.12% and 94.99% and 92.39%
MCF7 cells; Log10 Conc. (nM) 0.69, 4 days
  % Growth: 52.29% and 66.02% and 70.05%
MCF7 cells; Log10 Conc. (nM) 1.29, 4 days
  % Growth: 18.87% and 28.85% and 28.07%
MCF7 cells; Log10 Conc. (nM) 2.49, 4 days
  % Growth: 9.82% and 18.59% and 16.86%
MCF7 cells; Log10 Conc. (nM) 3.70, 4 days
  % Growth: -7.82% and -0.67% and -1.06%
MCF7 cells; Log10 Conc. (nM) 4.30, 4 days
  % Growth: -10.31% and -1.91% and -1.69%
MCF7 cells; Log10 Conc. (nM) -0.52, 4 days
  % Growth: 95.85% and 97.88% and 93.10%

Reference: article PMC12528448, “Resistance to CDK7 inhibitors directed by acquired mutation of a conserved residue in cancer cells” (The EMBO Journal, 2025)
